Measurements as given in ChEMBL document CHEMBL1201862, “PubChem BioAssay data set” (2004).
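Cells were grown in 96-well plates and exposed to each compound for 48 hours at five concentrations; endpoints were interpolated linearly between bracketing concentrations, or set to the highest concentration if not reached. GI50: concentration for 50% inhibition of growth.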 Activity calls are given as the source filed them. Rule as the data show it: active = GI50 up to about 1.1 µM and inactive = higher.

Experiments:
Test in all cases: growth of human tumour cells (NCI), 48 h
A498 = system: A498
BT-549 = system: BT-549
CAKI-1 = system: CAKI-1
HL-60 = system: HL-60
IGROV-1 = system: IGROV-1
K562 = system: K562
MCF7 = system: MCF7
MDA-MB-231 = system: MDA-MB-231
MDA-MB-435 = system: MDA-MB-435
MDA-N = system: MDA-N
NCI-H522 = system: NCI-H522
OVCAR-4 = system: OVCAR-4
PC-3 = system: PC-3
SF-295 = system: SF-295
SF-539 = system: SF-539
SNB-75 = system: SNB-75
SR = system: SR
T47D = system: T47D
COLO 205 = system: COLO 205
Malme-3M = system: Malme-3M

Structure (SMILES) | GI50 (A498) | GI50 (BT-549) | GI50 (CAKI-1) | GI50 (HL-60) | GI50 (IGROV-1) | GI50 (K562) | GI50 (MCF7) | GI50 (MDA-MB-231) | GI50 (MDA-MB-435) | GI50 (MDA-N) | GI50 (NCI-H522) | GI50 (OVCAR-4) | GI50 (PC-3) | GI50 (SF-295) | GI50 (SF-539) | GI50 (SNB-75) | GI50 (SR) | GI50 (T47D) | GI50 (COLO 205) | GI50 (Malme-3M)
CC1=NN(c2cccc(Cl)c2)C2(C1=Cc1cccs1)C(Cl)C(=O)N2c1nc2ccccc2s1 (configuration not stated) | 21.8 µM (inactive) | 25.2 µM (inactive) | 23.5 µM (inactive) | 25.6 µM (inactive) | 28.6 µM (inactive) | 25.7 µM (inactive) | 23.2 µM (inactive) | 19.7 µM (inactive) | 30.4 µM (inactive) | 22.1 µM (inactive) | 18.5 µM (inactive) | 28.9 µM (inactive) | 20.9 µM (inactive) | 19.6 µM (inactive) | 15.2 µM (inactive) | 34.8 µM (inactive) | 18.5 µM (inactive) | 28.6 µM (inactive) |  | 
CCOc1cc(C(c2c(O)c3ccccc3oc2=O)c2c(O)c3ccccc3oc2=O)ccc1OC | 19.6 µM (inactive) | 20.7 µM (inactive) | 16.4 µM (inactive) | 24.8 µM (inactive) | 17.7 µM (inactive) | 33.4 µM (inactive) | 21 µM (inactive) | 16 µM (inactive) | 15.3 µM (inactive) | 18.1 µM (inactive) | 18.3 µM (inactive) | 17.2 µM (inactive) | 17.3 µM (inactive) | 19.4 µM (inactive) | 20.7 µM (inactive) |  | 28.1 µM (inactive) | 16.1 µM (inactive) | 20 µM (inactive) | 19.8 µM (inactive)
Cc1nc2ccccc2c(=O)n1NC(=O)c1ccc(N)cc1 | > 100 µM (inactive) | > 100 µM (inactive) |  | > 100 µM (inactive) | > 100 µM (inactive) | > 100 µM (inactive) | > 100 µM (inactive) | > 100 µM (inactive) | > 100 µM (inactive) | > 100 µM (inactive) | > 100 µM (inactive) | > 100 µM (inactive) | > 100 µM (inactive) | > 100 µM (inactive) | > 100 µM (inactive) | 14.6 µM (inactive) | > 100 µM (inactive) | > 100 µM (inactive) | > 100 µM (inactive) | > 100 µM (inactive)
C/C(=N\NC(=S)NCCCNC(=S)N/N=C(\C)c1ccccn1)c1ccccn1 | 4.97 µM (inactive) | 3.13 µM (inactive) |  | 1.35 µM (inactive) | 3.9 µM (inactive) | 4.06 µM (inactive) | 3.34 µM (inactive) | 6.21 µM (inactive) | 3.23 µM (inactive) | 9.27 µM (inactive) | 1.37 µM (inactive) | 5.28 µM (inactive) | 9.1 µM (inactive) | 5.27 µM (inactive) | 2.42 µM (inactive) | 2.95 µM (inactive) | 0.968 µM (active) | 3.51 µM (inactive) | 1.8 µM (inactive) | 2.42 µM (inactive)
Cc1cc(=O)oc2cc(SC(=O)N(C)C)ccc12 | > 100 µM (inactive) | > 100 µM (inactive) | > 100 µM (inactive) | > 100 µM (inactive) | > 100 µM (inactive) |  | > 100 µM (inactive) | > 100 µM (inactive) | > 100 µM (inactive) | > 100 µM (inactive) | > 100 µM (inactive) | > 100 µM (inactive) | > 100 µM (inactive) | > 100 µM (inactive) | > 100 µM (inactive) | > 100 µM (inactive) | > 100 µM (inactive) | > 100 µM (inactive) | > 100 µM (inactive) | > 100 µM (inactive)
COC1/C=C\C=C(/C)C(=O)NC2=CC(=O)C(N)=C(CC(C)CC(OC)C(O)C(C)C=C(C)C1OC(N)=O)C2=O (configuration not stated) | 19.1 µM (inactive) | 11.8 µM (inactive) | 0.977 µM (active) | 0.0585 µM (active) | 0.0318 µM (active) | 0.0204 µM (active) | 0.0416 µM (active) | < 0.0187 µM (active) | < 0.0191 µM (active) | < 0.0171 µM (active) | 0.0234 µM (active) | 4.07 µM (inactive) | 0.293 µM (active) | 0.0295 µM (active) |  | < 0.0137 µM (active) | 0.0161 µM (active) | 0.653 µM (active) | < 0.01 µM (active) | 0.0231 µM (active)
Cc1c(C(=O)N2CCN(c3ccc([N+](=O)[O-])cc3)CC2)[n+]([O-])c2cc(Cl)c(Cl)cc2[n+]1[O-] | 7.19 µM (inactive) | 16.9 µM (inactive) | 25.1 µM (inactive) | 28.4 µM (inactive) | 22.2 µM (inactive) | 26.5 µM (inactive) | 16.2 µM (inactive) | 21.2 µM (inactive) | 35.7 µM (inactive) | 26.7 µM (inactive) | 16.7 µM (inactive) | 10.8 µM (inactive) | 19.1 µM (inactive) | 19.1 µM (inactive) | 18.6 µM (inactive) |  | 21.2 µM (inactive) | 17.1 µM (inactive) | 26.4 µM (inactive) | 21.8 µM (inactive)
